Measurements published in PubChem BioAssay AID1259246 (Broad Institute, 2017).
Inconclusive results are not listed. Active and inactive are the calls of the source.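 Rule for the calls: active = valid dose-response fit whose half-maximal growth-inhibiting concentration is at or below a set limit above the top tested dose; inconclusive = flat fit with effect between 30 and 70%, or poor fit; inactive = half-maximal concentration above a set limit.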

Test: antibacterial activity against Clostridioides difficile – 10-point retest, dose response (AID 1259246)
Conditions: Clostridioides difficile clinical isolate growth, OD600, 24 h; at 60 µM (top of the series)
In the case of `O=C(C[C@H]1C[C@@H]2c3cc(NC(=O)C4CCC4)ccc3O[C@@H]2[C@@H](CO)O1)NCc1ccccc1`, the activity change, negative = inhibition is reported as 6.59% (inactive). With `CO[C@H]1CN(C)C(=O)c2ccc(NC(=O)c3ccc(-c4ccccc4)cc3)cc2OC[C@@H](C)NC[C@@H]1C` the activity change, negative = inhibition was 12.9% (inactive). With `COC(=O)[C@@H]1[C@@H](CO)[C@@H]2Cn3c(ccc(-c4cccc(F)c4)c3=O)[C@@H]2N1C(C)=O` the activity change, negative = inhibition was 9.82% (inactive). For `COc1ccccc1-c1ccc2c(c1)O[C@H](CN(C)Cc1ccc3c(c1)OCO3)[C@H](C)CN([C@H](C)CO)S2(=O)=O`, the activity change, negative = inhibition was -2.89% (inactive). For `O=C(C[C@H]1C[C@@H]2c3cc(NC(=O)C4CCC4)ccc3O[C@@H]2[C@@H](CO)O1)NCc1ccncc1`, the activity change, negative = inhibition was -0.413% (inactive).

Same assay, conditions: Clostridioides difficile clinical isolate growth, OD600, 24 h; at 120 µM (top of the series)
In the case of `C[C@H](CO)N1C[C@H](C)[C@@H](CN(C)Cc2ccc3c(c2)OCO3)Oc2c(NC(=O)Nc3ccc(C(F)(F)F)cc3)cccc2C1=O`, the activity change, negative = inhibition is reported as 28.9% (inactive). In the case of `CC(C)CC#Cc1ccc2c(c1)O[C@H](CN(C)Cc1cccnc1)[C@@H](C)CN([C@@H](C)CO)S2(=O)=O`, the activity change, negative = inhibition is reported as 20.5% (inactive). With `C[C@H]1CN([C@@H](C)CO)C(=O)c2cccc(NC(=O)Nc3ccc4c(c3)OCO4)c2O[C@@H]1CN(C)Cc1ccc(-c2ccccc2)cc1` the activity change, negative = inhibition was 2.11% (inactive). In the case of `C[C@@H]1CN([C@@H](C)CO)S(=O)(=O)c2ccc(C#CC3CCCCC3)cc2O[C@H]1CN(C)Cc1cccnc1`, the activity change, negative = inhibition is reported as 17.6% (inactive). With `CNC[C@@H]1Oc2cc(-c3ccc(C)cc3)ccc2S(=O)(=O)N([C@@H](C)CO)C[C@H]1C` the activity change, negative = inhibition was 10.7% (inactive). In the case of `CNC[C@@H]1Oc2ccc(NC(=O)CCCN(C)C)cc2CC(=O)N([C@H](C)CO)C[C@H]1C`, the activity change, negative = inhibition is reported as 2.33% (inactive). With `COc1ccc(-c2ccc([C@H]3[C@H](C#N)N(C(=O)NC4CCCCC4)[C@H]3CO)cc2)cc1` the activity change, negative = inhibition was 7.21% (inactive). With `C[C@H]1CN([C@@H](C)CO)C(=O)Cc2cc(NC(=O)CCCN(C)C)ccc2O[C@H]1CN(C)Cc1ccc(-c2ccccc2)cc1` the activity change, negative = inhibition was 20.8% (inactive). With `O=C(N[C@H]1CC[C@H](CCNS(=O)(=O)Cc2ccccc2)O[C@H]1CO)c1cnccn1` the activity change, negative = inhibition was -2.56% (inactive). For `C[C@@H]1CN([C@H](C)CO)C(=O)Cc2cc(NC(=O)C3CC3)ccc2O[C@H]1CN(C)Cc1ccc(-c2ccccc2)cc1`, the activity change, negative = inhibition was 18.8% (inactive). With `CO[C@@H]1CN(C)C(=O)c2ccc(NC(=O)c3nc4ccccc4s3)cc2OC[C@H](C)N(Cc2ccncc2)C[C@@H]1C` the activity change, negative = inhibition was 10.8% (inactive). In the case of `C[C@@H]1CCCCO[C@@H](CN(C)S(=O)(=O)c2ccc(F)cc2)[C@H](C)CN([C@H](C)CO)C(=O)c2cc(NC(=O)Nc3cccc4ccccc34)ccc2O1`, the activity change, negative = inhibition is reported as 34.2% (inactive). For `CO[C@@H]1CN(C)C(=O)c2cc(NC(=O)c3ccc(-c4ccccc4)cc3)ccc2OC[C@H](C)NC[C@@H]1C`, the activity change, negative = inhibition was 31.8% (inactive). For `C[C@H](CO)N1C[C@H](C)[C@H](CN(C)Cc2ccc(-c3ccccc3)cc2)Oc2ccc(NC(=O)CCCN(C)C)cc2CC1=O`, the activity change, negative = inhibition was 37.3% (inactive). With `C[C@H](CO)N1C[C@H](C)[C@@H](CN(C)C(=O)c2ccccc2)OCCCC[C@H](C)Oc2ccc(NC(=O)Nc3cccc4ccccc34)cc2C1=O` the activity change, negative = inhibition was 37.5% (inactive). With `Cc1ccc(-c2ccc3c(c2)O[C@@H](CN(C)Cc2cccnc2)[C@H](C)CN([C@@H](C)CO)S3(=O)=O)cc1` the activity change, negative = inhibition was 10.2% (inactive). In the case of `C[C@@H]1CN([C@H](C)CO)C(=O)c2cc(NC(=O)Nc3cccc4ccccc34)ccc2O[C@@H](C)CCCCO[C@H]1CN(C)S(C)(=O)=O`, the activity change, negative = inhibition is reported as 1.6% (inactive). For `C[C@@H]1CN([C@@H](C)CO)C(=O)c2cc(NC(=O)Nc3cccc4ccccc34)ccc2O[C@@H](C)CCCCO[C@H]1CN(C)S(=O)(=O)c1ccc(F)cc1`, the activity change, negative = inhibition was 34.1% (inactive). For `C[C@@H]1CCCCO[C@H](CN(C)C(=O)CCC(F)(F)F)[C@H](C)CN([C@@H](C)CO)C(=O)c2cc(NC(=O)c3ccncc3)ccc2O1`, the activity change, negative = inhibition was 14.3% (inactive). In the case of `C[C@@H]1CN([C@@H](C)CO)C(=O)c2ccccc2-c2ccccc2CO[C@@H]1CN(C)S(=O)(=O)c1ccc([N+](=O)[O-])cc1`, the activity change, negative = inhibition is reported as 35.2% (inactive). With `C[C@@H]1CN([C@@H](C)CO)C(=O)c2cccc(NC(=O)Nc3ccccc3)c2O[C@H]1CN(C)Cc1ccc(Oc2ccccc2)cc1` the activity change, negative = inhibition was 26.1% (inactive). With `C/C=C/c1ccc2c(c1)O[C@H](CN(C)CC1CCOCC1)[C@H](C)CN([C@@H](C)CO)S2(=O)=O` the activity change, negative = inhibition was -1.64% (inactive). With `CC(C)NC(=O)N(C)C[C@@H]1OCCCC[C@H](C)Oc2ccc(NC(=O)Nc3cccc4ccccc34)cc2C(=O)N([C@H](C)CO)C[C@@H]1C` the activity change, negative = inhibition was 60.5% (inactive). With `CO[C@H]1CN(C)C(=O)c2ccc(NC(=O)c3ccc(-c4ccccc4)cc3)cc2OC[C@H](C)NC[C@H]1C` the activity change, negative = inhibition was 4.8% (inactive). In the case of `C[C@@H]1CN([C@H](C)CO)C(=O)c2cc(NS(=O)(=O)c3ccccc3)ccc2O[C@@H](C)CCCCO[C@H]1CN(C)S(=O)(=O)c1ccc(F)cc1`, the activity change, negative = inhibition is reported as 12.7% (inactive). In the case of `CC(C)NC(=O)Nc1ccc2c(c1)CC(=O)N([C@@H](C)CO)C[C@@H](C)[C@@H](CN(C)Cc1ccc(-c3ccccc3)cc1)O2`, the activity change, negative = inhibition is reported as 25% (inactive). With `C[C@@H]1CN([C@@H](C)CO)C(=O)Cc2cc(N(C)C)ccc2O[C@@H]1CN(C)Cc1ccc(-c2ccccc2)cc1` the activity change, negative = inhibition was 30.2% (inactive). With `COc1ccc(-c2ccc([C@H]3[C@H](C#N)N[C@H]3CO)cc2)cc1` the activity change, negative = inhibition was -2.73% (inactive). For `COc1ccc(CN2C[C@H](C)[C@@H](OC)CN(C)C(=O)c3ccc(NC(=O)c4nc5ccccc5s4)cc3OC[C@@H]2C)cc1`, the activity change, negative = inhibition was 9.23% (inactive). With `C[C@@H]1CN([C@@H](C)CO)C(=O)Cc2cc(NC(=O)C3CC3)ccc2O[C@@H]1CN(C)Cc1ccc(Oc2ccccc2)cc1` the activity change, negative = inhibition was 21.3% (inactive). In the case of `CO[C@@H]1CN(C)C(=O)c2ccc(NC(=O)c3nc4ccccc4s3)cc2OC[C@@H](C)N(Cc2ccncc2)C[C@@H]1C`, the activity change, negative = inhibition is reported as 14.1% (inactive). For `CO[C@H]1CN(C)C(=O)c2ccc(NC(=O)c3nc4ccccc4s3)cc2OC[C@H](C)N(Cc2ccncc2)C[C@H]1C`, the activity change, negative = inhibition was 18.4% (inactive). With `C[C@@H]1CN([C@H](C)CO)C(=O)c2cccc(NC(=O)Nc3ccccc3)c2O[C@@H]1CN(C)Cc1ccc(Oc2ccccc2)cc1` the activity change, negative = inhibition was 32.9% (inactive). With `C[C@@H]1CN([C@@H](C)CO)C(=O)c2cccc(NC(=O)Nc3ccc(C(F)(F)F)cc3)c2O[C@@H]1CN(C)S(=O)(=O)c1ccc(Cl)cc1` the activity change, negative = inhibition was 22.7% (inactive). For `C[C@H](CO)N1C[C@H](C)[C@@H](CN(C)Cc2ccc(Oc3ccccc3)cc2)Oc2ccc(NC(=O)C3CC3)cc2CC1=O`, the activity change, negative = inhibition was 33.9% (inactive). In the case of `CNC[C@H]1Oc2ccc(N)cc2CC(=O)N([C@@H](C)CO)C[C@H]1C`, the activity change, negative = inhibition is reported as -3.55% (inactive). For `C[C@@H]1CN([C@H](C)CO)S(=O)(=O)c2ccc(Br)cc2O[C@H]1CN(C)Cc1cccnc1`, the activity change, negative = inhibition was 0.001% (inactive). In the case of `CO[C@@H]1CN(C)C(=O)c2cc(NC(=O)c3nc4ccccc4s3)ccc2OC[C@H](C)N(Cc2ccncc2)C[C@@H]1C`, the activity change, negative = inhibition is reported as 13.2% (inactive). With `CO[C@H]1CN(C)C(=O)c2ccc(NC(=O)c3ccc(-c4ccccc4)cc3)cc2OC[C@@H](C)NC[C@H]1C` the activity change, negative = inhibition was 31.5% (inactive). In the case of `O=C(C[C@H]1C[C@H]2c3cc(NS(=O)(=O)c4ccc(F)cc4)ccc3O[C@H]2[C@@H](CO)O1)NCc1ccc(-c2ccccc2)cc1`, the activity change, negative = inhibition is reported as 10.6% (inactive). For `COc1ccccc1-c1ccc2c(c1)O[C@H](CN(C)Cc1ccc3c(c1)OCO3)[C@H](C)CN([C@@H](C)CO)S2(=O)=O`, the activity change, negative = inhibition was 31.6% (inactive). With `CNC[C@@H]1Oc2cc(Br)ccc2S(=O)(=O)N([C@H](C)CO)C[C@H]1C` the activity change, negative = inhibition was 2.27% (inactive). With `CO[C@H]1CN(C)C(=O)c2ccc(NC(=O)c3ccc(-c4ccccc4)cc3)cc2OC[C@H](C)NC[C@@H]1C` the activity change, negative = inhibition was 5.28% (inactive).

Same assay, conditions: Clostridioides difficile clinical isolate growth, OD600, 24 h; at 135 µM (top of the series)
For `O=C(C[C@H]1C[C@@H]2c3cc(NC(=O)C4CCC4)ccc3O[C@@H]2[C@@H](CO)O1)NCc1ccc2c(c1)OCO2`, the activity change, negative = inhibition was -9.69% (inactive). In the case of `C[C@@H]1CN([C@H](C)CO)C(=O)c2cc(NC(=O)Nc3cccc4ccccc34)ccc2O[C@@H](C)CCCCO[C@H]1CN(C)C(=O)c1ccccc1`, the activity change, negative = inhibition is reported as 14.9% (inactive). In the case of `O=C(C[C@H]1C[C@H]2c3cc(NC(=O)Nc4ccc(F)cc4)ccc3O[C@H]2[C@@H](CO)O1)NC1CCCCC1`, the activity change, negative = inhibition is reported as -1.5% (inactive). In the case of `O=C(C[C@H]1C[C@@H]2c3cc(NC(=O)C4CCC4)ccc3O[C@@H]2[C@H](CO)O1)NCc1ccc(Cl)cc1`, the activity change, negative = inhibition is reported as 4.22% (inactive). With `C[C@H]1CN([C@@H](C)CO)C(=O)Cc2cc(NC(=O)C3CC3)ccc2O[C@@H]1CN(C)Cc1ccc(Oc2ccccc2)cc1` the activity change, negative = inhibition was 17.9% (inactive). In the case of `C[C@H]1CN([C@@H](C)CO)C(=O)Cc2cc(NC(=O)C3CC3)ccc2O[C@H]1CN(C)Cc1ccc(Oc2ccccc2)cc1`, the activity change, negative = inhibition is reported as 26.6% (inactive). With `COc1ccc(CN(C)C[C@H]2Oc3ccc(NC(=O)C4CC4)cc3CC(=O)N([C@H](C)CO)C[C@H]2C)cc1` the activity change, negative = inhibition was 0.998% (inactive). In the case of `C[C@@H]1CN([C@H](C)CO)C(=O)Cc2cc(N(C)C)ccc2O[C@@H]1CN(C)Cc1ccc(Oc2ccccc2)cc1`, the activity change, negative = inhibition is reported as 23.7% (inactive). With `C[C@@H]1CN([C@@H](C)CO)C(=O)Cc2cc(NC(=O)C3CC3)ccc2O[C@@H]1CN(C)Cc1ccc(Cl)c(Cl)c1` the activity change, negative = inhibition was 16.4% (inactive). For `O=C(Nc1ccc(-c2ccccc2)cc1)[C@H]1[C@H](CO)[C@H]2Cn3c(cccc3=O)[C@H]2N1CC1CCCCC1`, the activity change, negative = inhibition was 32.6% (inactive). With `Cc1ccc(S(=O)(=O)N(C)C[C@H]2Oc3ccc(NS(C)(=O)=O)cc3C(=O)N([C@@H](C)CO)C[C@H]2C)cc1` the activity change, negative = inhibition was 9.46% (inactive).
